Values joined by “and” are separate entries in the source; they are usually repeats but may differ in a detail not shown here. Identical values can stand only once. Toxic doses and inconclusive results are not listed. Where a SMILES comes first, the peptide text is derived from it. [ ]: non-standard residue; d: D form. The star is where a group is joined. Cbz = O=C(OCc1ccccc1)*; Nva = CCC[CH](N)C(=O)O
Test system: B6C3F1 mice, B16 melanoma ip, median survival T/C
Experiment: NCI In Vivo Anticancer Drug Screen. Data for tumor model B16 Melanoma (intraperitoneal) in B6C3F1 mice
Conditions: endpoint: median survival time, schedule: Q01DX009 (ip), higher = longer survival
Procedure, shortened: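 Readout: survival or tumor size in treated mice relative to vehicle controls (T/C). Model uses transplantable tumors grown in mice.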

[1] = dose: 6.0 mg/kg/injection, vehicle: saline with Tween-80
[2] = dose: 6.25 mg/kg/injection, vehicle: saline with Tween-80
[3] = dose: 25.0 mg/kg/injection, vehicle: saline with Tween-80
[4] = dose: 50.0 mg/kg/injection, vehicle: saline with Tween-80
[5] = dose: 100.0 mg/kg/injection, vehicle: saline with Tween-80
[6] = dose: 12.5 mg/kg/injection, vehicle: saline
[7] = dose: 25.0 mg/kg/injection, vehicle: saline
[8] = dose: 100.0 mg/kg/injection, vehicle: saline
[9] = dose: 6.25 mg/kg/injection, vehicle: saline
[10] = dose: 50.0 mg/kg/injection, vehicle: saline
[11] = dose: 200.0 mg/kg/injection, vehicle: saline with Tween-80
[12] = dose: 3.0 mg/kg/injection, vehicle: saline with Tween-80
[13] = dose: 12.5 mg/kg/injection, vehicle: saline with Tween-80

SMILES: NC(C(=O)O)c1ccc(CBr)cc1 (stereo not drawn)
- T/C [1]: 114 % of control
- T/C [2]: 111 % of control
- T/C [3]: 159 % of control
- T/C [4]: 155 % of control and 165 % of control
- T/C [5]: 150 % of control and 183 % of control

SMILES: CN(CO)c1nc(N(C)CO)nc(N(C)CO)n1
- T/C [6]: 113 % of control and 115 % of control
- T/C [7]: 118 % of control
- T/C [8]: 153 % of control and 190 % of control

SMILES: Nc1ncn(C2CC(O)C(CO)O2)c(=O)n1 (stereo not drawn)
- T/C (dose: 0.25 mg/kg/injection, vehicle: Klucel (hydroxypropylcellulose) (HPC)): 86 % of control
- T/C (dose: 0.25 mg/kg/injection, vehicle: saline): 117 % of control
- T/C (dose: 15.62 micrograms/kg/injection, vehicle: Klucel (hydroxypropylcellulose) (HPC)): 87 % of control
- T/C (dose: 31.25 micrograms/kg/injection, vehicle: Klucel (hydroxypropylcellulose) (HPC)): 86 % of control
- T/C (dose: 125.0 micrograms/kg/injection, vehicle: Klucel (hydroxypropylcellulose) (HPC)): 114 % of control
- T/C (dose: 250.0 micrograms/kg/injection, vehicle: Klucel (hydroxypropylcellulose) (HPC)): 97 % of control

SMILES: COc1cc2c(c(OC)c1O)-c1ccc(SC)c(=O)cc1C(NC(C)=O)CC2 (stereo not drawn)
- T/C (dose: 2.5 mg/kg/injection, vehicle: water): 119 % of control
- T/C (dose: 5.0 mg/kg/injection, vehicle: water): 119 % of control
- T/C (dose: 10.0 mg/kg/injection, vehicle: water): 116 % of control
- T/C (dose: 20.0 mg/kg/injection, vehicle: water): 119 % of control
- T/C (dose: 40.0 mg/kg/injection, vehicle: water): 122 % of control

SMILES: Brc1c(NC2=NCCN2)ccc2nccnc12
- T/C (dose: 1.56 mg/kg/injection, vehicle: saline): 100 % of control
- T/C (dose: 3.12 mg/kg/injection, vehicle: saline): 96 % of control
- T/C [9]: 102 % of control
- T/C [6]: 94 % of control and 106 % of control
- T/C [7]: 109 % of control and 102 % of control
- T/C [10]: 112 % of control and 104 % of control

SMILES: COc1ccc2c(c1)-c1nn(CCCN(C)C)c3ccc([N+](=O)[O-])c(c13)N2
- T/C (dose: 1.56 mg/kg/injection, vehicle: water): 110 % of control
- T/C (dose: 3.12 mg/kg/injection, vehicle: water): 116 % of control and 122 % of control

SMILES: Cc1ccc(S(=O)(=O)OCCN(CCOS(=O)(=O)c2ccc(C)cc2)c2ccc(F)cc2)cc1
- T/C (dose: 3.12 mg/kg/injection, vehicle: saline + alcohol): 109 % of control
- T/C (dose: 6.25 mg/kg/injection, vehicle: saline + alcohol): 109 % of control
- T/C (dose: 12.5 mg/kg/injection, vehicle: saline + alcohol): 108 % of control
- T/C (dose: 25.0 mg/kg/injection, vehicle: saline + alcohol): 111 % of control
- T/C (dose: 50.0 mg/kg/injection, vehicle: saline + alcohol): 108 % of control

SMILES: Cc1ccc(N)c(N)c1
- T/C [3]: 95 % of control
- T/C [4]: 99 % of control
- T/C [5]: 102 % of control
- T/C [11]: 104 % of control

SMILES: CCCC(NC(=O)OCc1ccccc1)C(=O)NC(Cc1ccccc1)C(N)=O (stereo not drawn) (Cbz-[Nva]-Phe-NH2; configuration not given here)
- T/C (dose: 100.0 mg/kg/injection, vehicle: Klucel (hydroxypropylcellulose) (HPC)): 101 % of control
- T/C (dose: 200.0 mg/kg/injection, vehicle: Klucel (hydroxypropylcellulose) (HPC)): 91 % of control
- T/C (dose: 400.0 mg/kg/injection, vehicle: Klucel (hydroxypropylcellulose) (HPC)): 89 % of control

SMILES: Nc1ccc2ccc(O)cc2c1
- T/C [3]: 104 % of control
- T/C [4]: 97 % of control
- T/C [5]: 105 % of control

SMILES: COC(=O)[C@@]12OC[C@]34[C@H]([C@@H](O)[C@@H]1O)[C@@]1(C)CC(=O)C(O)=C(C)[C@@H]1C[C@H]3OC(=O)[C@H](OC(=O)CC(C)C)[C@@H]24
- T/C (dose: 1.0 mg/kg/injection, vehicle: saline + alcohol): 156 % of control and 157 % of control
- T/C (dose: 2.0 mg/kg/injection, vehicle: saline + alcohol): 180 % of control

SMILES: CN(C)N=Nc1ccc2c(c1)N(C)c1ccc(F)cc1S2
- T/C (dose: 6.25 mg/kg/injection, vehicle: other): 106 % of control
- T/C (dose: 12.5 mg/kg/injection, vehicle: other): 113 % of control
- T/C (dose: 25.0 mg/kg/injection, vehicle: other): 115 % of control
- T/C (dose: 50.0 mg/kg/injection, vehicle: other): 120 % of control
- T/C (dose: 100.0 mg/kg/injection, vehicle: other): 117 % of control

SMILES: CCOC(=O)Nc1cc2c(c(N)n1)N=C(c1ccc(Cl)cc1Cl)CN2
- T/C (dose: 1.5 mg/kg/injection, vehicle: saline with Tween-80): 113 % of control and 119 % of control
- T/C [12]: 115 % of control
- T/C [1]: 115 % of control
- T/C [13]: 155 % of control

SMILES: CCCOC(=O)c1ccc(O)cc1
- T/C [13]: 103 % of control
- T/C [3]: 109 % of control
- T/C [4]: 109 % of control
- T/C [5]: 89 % of control
- T/C [11]: 107 % of control
- T/C (dose: 400.0 mg/kg/injection, vehicle: saline with Tween-80): 100 % of control

SMILES: CNc1cccnc1/C=N/NC(N)=S
- T/C [13]: 119 % of control
- T/C [4]: 159 % of control
- T/C [5]: 151 % of control

SMILES: CN(C)CCNc1ccc([N+](=O)[O-])c2sc3ccccc3c(=O)c12
- T/C [2]: 113 % of control
- T/C [9]: 105 % of control
- T/C [13]: 117 % of control and 102 % of control
- T/C [6]: 101 % of control
- T/C [3]: 118 % of control
- T/C [7]: 103 % of control
- T/C [10]: 106 % of control

SMILES: c1ccc2[nH]ncc2c1
- T/C [4]: 107 % of control
- T/C [5]: 104 % of control
- T/C [11]: 102 % of control

SMILES: CC(C)C(NC(=O)OC(C)(C)C)C(=O)ON1C(=O)CCC1=O (stereo not drawn)
- T/C [4]: 91 % of control
- T/C [5]: 86 % of control

SMILES: C(=C\c1nc2ccccc2[nH]1)/c1nc2ccccc2[nH]1
- T/C [3]: 96 % of control
- T/C [4]: 98 % of control
- T/C [11]: 87 % of control

SMILES: CCN1/C(=C/C=C/C=C\C=C\c2sc3ccc4ccccc4c3[n+]2CC)Sc2ccc3ccccc3c21
- T/C (dose: 1.25 mg/kg/injection, vehicle: saline with Tween-80): 101 % of control
- T/C (dose: 1.25 mg/kg/injection, vehicle: saline): 124 % of control
- T/C (dose: 2.5 mg/kg/injection, vehicle: saline with Tween-80): 94 % of control
- T/C (dose: 2.5 mg/kg/injection, vehicle: saline): 123 % of control

SMILES: CC(=O)/C=C\c1ccc(Cl)cc1
- T/C [6]: 107 % of control
- T/C [7]: 103 % of control
- T/C [10]: 103 % of control

SMILES: COc1ccccc1Cc1c(OC)cc(OC)c(C(=O)CCc2ccccc2)c1O
- T/C (dose: 4.3 mg/kg/injection, vehicle: other): 101 % of control
- T/C (dose: 6.4 mg/kg/injection, vehicle: other): 92 % of control
- T/C (dose: 9.6 mg/kg/injection, vehicle: other): 89 % of control
- T/C (dose: 14.0 mg/kg/injection, vehicle: other): 94 % of control

SMILES: CCCC(=O)Nc1ncnc2c1ncn2C1OC2COP(=O)(O)OC2C1OC(=O)CCC (stereo not drawn)
- T/C [6]: 102 % of control (2×) and 103 % of control
- T/C [7]: 95 % of control and 100 % of control and 104 % of control
- T/C [10]: 93 % of control and 102 % of control (2×)
- T/C [8]: 94 % of control and 101 % of control and 102 % of control
- T/C (dose: 200.0 mg/kg/injection, vehicle: saline): 112 % of control and 88 % of control and 100 % of control
- T/C (dose: 400.0 mg/kg/injection, vehicle: saline): 88 % of control and 94 % of control and 103 % of control

SMILES: Nc1nnc[se]1
- T/C [12]: 98 % of control
- T/C (dose: 3.12 mg/kg/injection, vehicle: saline with Tween-80): 101 % of control
- T/C [2]: 101 % of control and 102 % of control
- T/C (dose: 12.0 mg/kg/injection, vehicle: saline with Tween-80): 103 % of control
- T/C [13]: 109 % of control and 102 % of control
- T/C [3]: 108 % of control (2×) and 105 % of control
- T/C [4]: 108 % of control and 115 % of control

SMILES: Nc1nc(-c2ccccc2)c(Br)c(=O)[nH]1
- T/C [4]: 156 % of control and 183 % of control
- T/C (dose: 800.0 mg/kg/injection, vehicle: saline with Tween-80): 116 % of control

SMILES: CN1CCN(Cc2nc3cccc4c3c([n+]2[O-])-c2ccccc2-4)CC1
- T/C [13]: 98 % of control
- T/C [3]: 99 % of control
- T/C [4]: 110 % of control
- T/C [5]: 106 % of control
- T/C [11]: 120 % of control

— PubChem BioAssay AID200 (DTP/NCI, 2004)
